In ChEMBL document CHEMBL3045068, “Effect of methomyl and oxamyl soil applications on early control of nematodes and insects” (Pest Manag Sci, 2011):
≈ marks a conversion by molar mass, not a printed value.

Assays:
Gossypium hirsutum [1] = assay: Phytotoxicity in Gossypium hirsutum (cotton) assessed as concentration required to cause foliar edge burn applied to soil after 3 weeks; type: organism-based; details: in vivo, other, 504 h
Solanum lycopersicum = assay: Phytotoxicity in Solanum lycopersicum (tomato) assessed as concentration required to cause foliar edge burn applied to soil after 5 weeks; type: organism-based; details: in vivo, 840 h
Meloidogyne incognita [2] = assay: Nematicidal activity against second juvenile stage of Meloidogyne incognita (root-knot nematode) infected lima bean plant assessed as emergence at 1 kg ai/ha applied to soil measured during planting under green house conditions (reference value: 83 +/- 5%); type: functional
Bemisia tabaci = assay: Insecticidal activity against second-instar […] stage of Bemisia tabaci (sweet potato whitefly) infested cotton assessed as mortality applied through foliar spray after 6 days; type: functional
Pisum sativum [3] = assay: Phytotoxicity in Pisum sativum (pea) assessed as root dry weight at 2 kg ai/ha applied to soil measured up to 7 days post planting at 19 degC (reference value: 2 +/- 0.21 g); type: organism-based; details: lathyrus oleraceus, in vivo, other, 168 h
Pisum sativum [4] = assay: Phytotoxicity in Pisum sativum (pea) assessed as plant height at 3 kg ai/ha applied to soil measured up to 14 days post planting at 27 degC under green house conditions (reference value: 9.6 +/- 1.5 cm); type: organism-based; details: lathyrus oleraceus, in vivo, other, 336 h
Meloidogyne incognita [5] = assay: Nematicidal activity against second juvenile stage of Meloidogyne incognita (root-knot nematode) infected lima bean plant assessed as reduction in root gall index at 4 kg ai/ha applied to soil measured up to 14 days post planting under green house conditions (reference value: 7 +/- 0.27%); type: functional
Pisum sativum [6] = assay: Phytotoxicity in Pisum sativum (pea) assessed as root dry weight at 3 kg ai/ha applied to soil measured up to 7 days post planting at 27 degC under green house conditions (reference value: 0.33 +/- 0.075 g); type: organism-based; details: lathyrus oleraceus, in vivo, other, 168 h
Pisum sativum [7] = assay: Phytotoxicity in Pisum sativum (pea) assessed as emergence at 3 kg ai/ha applied to soil measured up to 14 days post planting at 27 degC under green house conditions (reference value: 70 +/- 3.3%); type: organism-based; details: lathyrus oleraceus, in vivo, other, 336 h
Meloidogyne incognita [8] = assay: Nematicidal activity against second juvenile stage of Meloidogyne incognita (root-knot nematode) infected pea plant assessed as emergence at 2 kg ai/ha applied to soil measured up to 7 days post planting under green house conditions (reference value: 75 +/- 13%); type: functional
Meloidogyne incognita [9] = assay: Nematicidal activity against second juvenile stage of Meloidogyne incognita (root-knot nematode) infected pea plant assessed as emergence at 4 kg ai/ha applied to soil measured up to 7 days post planting under green house conditions (reference value: 75 +/- 13%); type: functional
Meloidogyne incognita [10] = assay: Nematicidal activity against second juvenile stage of Meloidogyne incognita (root-knot nematode) infected lima bean plant assessed as reduction in root gall index at 2 kg ai/ha applied to soil measured during planting under green house conditions (reference value: 7 +/- 0.27%); type: functional
Meloidogyne incognita [11] = assay: Nematicidal activity against second juvenile stage of Meloidogyne incognita (root-knot nematode) infected lima bean plant assessed as emergence at 3 kg ai/ha applied to soil measured up to 14 days post planting under green house conditions (reference value: 83 +/- 5%); type: functional
Meloidogyne incognita [12] = assay: Nematicidal activity against second juvenile stage of Meloidogyne incognita (root-knot nematode) infested soil containing cucumber seeds assessed as mortality applied post seed germination measured after 7 days under green house conditions; type: functional
Gossypium hirsutum [13] = assay: Phytotoxicity in Gossypium hirsutum (cotton) assessed as concentration required to cause foliar edge burn applied through foliar spray after 3 weeks; type: organism-based; details: in vivo, other, 504 h
Spodoptera exigua = assay: Insecticidal activity against Spodoptera exigua infested tomato assessed as mortality applied through foliar spray after 72 hr; type: functional
Meloidogyne incognita [14] = assay: Nematicidal activity against second juvenile stage of Meloidogyne incognita (root-knot nematode) infected lima bean plant assessed as root dry weight at 3 kg ai/ha applied to soil measured up to 14 days post planting under green house conditions (reference value: 0.5 +/- 0.052 g); type: functional
Phaseolus lunatus [15] = assay: Phytotoxicity in Phaseolus lunatus (lima bean) root assessed as root dry weight at 2.56 kg ai/ha applied to soil measured up to 14 days under green house conditions (reference value: 0.36 +/- 0.071 g); type: organism-based; details: in vivo, other, 336 h
Meloidogyne incognita [16] = assay: Nematicidal activity against second juvenile stage of Meloidogyne incognita (root-knot nematode) assessed as mortality after 72 hr; type: functional
Meloidogyne incognita [17] = assay: Nematicidal activity against second juvenile stage of Meloidogyne incognita (root-knot nematode) infected lima bean plant assessed as reduction in root gall index at 3 kg ai/ha applied to soil measured up to 14 days post planting under green house conditions (reference value: 7 +/- 0.27%); type: functional
Meloidogyne incognita [18] = assay: Nematicidal activity against second juvenile stage of Meloidogyne incognita (root-knot nematode) infected lima bean plant assessed as emergence at 4 kg ai/ha applied to soil measured up to 14 days post planting under green house conditions (reference value: 83 +/- 5%); type: functional
Phaseolus lunatus [19] = assay: Phytotoxicity in Phaseolus lunatus (lima bean) root assessed as root dry weight at 1.56 kg ai/ha applied to soil measured up to 7 days under green house conditions (reference value: 0.36 +/- 0.071 g); type: organism-based; details: in vivo, other, 168 h
Gossypium hirsutum [20] = assay: Phytotoxicity in Gossypium hirsutum (cotton) assessed as concentration required to cause foliar edge burn applied to soil after 4 weeks; type: organism-based; details: in vivo, other, 672 h
Phaseolus lunatus [21] = assay: Phytotoxicity in Phaseolus lunatus (lima bean) root assessed as root dry weight at 3.12 kg ai/ha applied to soil measured up to 14 days under green house conditions (reference value: 0.36 +/- 0.071 g); type: organism-based; details: in vivo, other, 336 h
Phaseolus lunatus [22] = assay: Phytotoxicity in Phaseolus lunatus (lima bean) root assessed as root dry weight at 2.12 kg ai/ha applied to soil measured up to 7 days under green house conditions (reference value: 0.36 +/- 0.071 g); type: organism-based; details: in vivo, other, 168 h
Phaseolus lunatus [23] = assay: Phytotoxicity in Phaseolus lunatus (lima bean) plant assessed as plant dry weight at 3.12 kg ai/ha applied to soil measured up to 14 days under green house conditions (reference value: 1.20 +/- 0.21 g); type: organism-based; details: in vivo, other, 336 h
Pisum sativum [24] = assay: Phytotoxicity in Pisum sativum (pea) assessed as emergence at 4 kg ai/ha applied to soil measured up to 7 days post planting at 19 degC relative to untreated control; type: organism-based; details: lathyrus oleraceus, in vivo, other, 168 h
Meloidogyne incognita [25] = assay: Nematicidal activity against second juvenile stage of Meloidogyne incognita (root-knot nematode) infected pea plant assessed as reduction in root gall index at 4 kg ai/ha applied to soil measured up to 7 days post planting under green house conditions (reference value: 9.7 +/- 0.30%); type: functional
Myzus persicae = assay: Insecticidal activity against Myzus persicae (green peach aphid) infested tomato assessed as mortality applied to soil after 5 days; type: functional
[26] = tested on: Frankliniella occidentalis; assay: Insecticidal activity against Frankliniella occidentalis (western flower thrips) infested beans assessed as mortality applied to soil after 7 days; type: functional
Meloidogyne incognita [27] = assay: Nematicidal activity against second juvenile stage of Meloidogyne incognita (root-knot nematode) infected lima bean plant assessed as shoot dry weight at 3 kg ai/ha applied to soil measured up to 7 days post planting under green house conditions (reference value: 1.84 +/- 0.18 g); type: functional

Question: Which results are given for `CNC(=O)ON=C(C)SC` [METHOMYL]?
Answer: Activity (Gossypium hirsutum [1]): 100 µg/mL; Activity (Solanum lycopersicum): 100 µg/mL; Activity (Meloidogyne incognita [2]): 100%; LC90 (Bemisia tabaci): 1589 µg/mL (≈ 9800 µM); LC50 (Bemisia tabaci; Bemisia tabaci, foliar, 144 h): 203 µg/mL (≈ 1250 µM); Activity (Pisum sativum [3]): 3.1 g; Activity (Pisum sativum [4]): 9.1 cm; Root_galling_index (Meloidogyne incognita [5]): 0%; Activity (Pisum sativum [6]): 0.2 g; Activity (Pisum sativum [7]): 80%; Activity (Meloidogyne incognita [8]): 50%; Activity (Meloidogyne incognita [9]): 88%; Root_galling_index (Meloidogyne incognita [10]): 0%; Activity (Meloidogyne incognita [11]): 83%; LC90 (Meloidogyne incognita [12]): 69.7 µg/mL (≈ 430 µM); LC50 (Meloidogyne incognita [12]; Meloidogyne incognita, Juvenile stage, 168 h): 10.2 µg/mL (≈ 62.9 µM); Activity (Gossypium hirsutum [13]): 100 µg/mL; LC90 (Spodoptera exigua): 60 µg/mL (≈ 370 µM); LC50 (Spodoptera exigua; Spodoptera exigua, foliar, 72 h): 29 µg/mL (≈ 179 µM); Activity (Meloidogyne incognita [14]): 0.38 g; Activity (Phaseolus lunatus [15]): 0.31 g; LC90 (Meloidogyne incognita [16]): 9.8 µg/mL (≈ 60.4 µM); LC50 (Meloidogyne incognita [16]; Meloidogyne incognita, Juvenile stage, 72 h): 3.6 µg/mL (≈ 22.2 µM); Root_galling_index (Meloidogyne incognita [17]): 0%; Activity (Meloidogyne incognita [18]): 83%; Activity (Phaseolus lunatus [19]): 0.26 g; Activity (Gossypium hirsutum [20]): 100 µg/mL; Activity (Phaseolus lunatus [21]): 0.22 g; Activity (Phaseolus lunatus [22]): 0.2 g; Activity (Phaseolus lunatus [23]): 0.87 g; Activity (Pisum sativum [24]): 100%; Root_galling_index (Meloidogyne incognita [25]): 0%; LC90 (Myzus persicae): 11 µg/mL (≈ 67.8 µM); LC50 (Myzus persicae; Myzus persicae, soil, 120 h): 1 µg/mL (≈ 6.16 µM); LC90 [26]: 36 µg/mL (≈ 222 µM); LC50 ([26]; Frankliniella occidentalis, soil, 168 h): 22 µg/mL (≈ 136 µM); Activity (Meloidogyne incognita [27]): 1.39 g
